The values that follow come from ChEMBL document CHEMBL5143626, “Marine Natural Products as Leads against SARS-CoV-2 Infection” (J Nat Prod, 2022).

Structures are written as SMILES. Active and inactive are the calls of the source. The calls are words filed in the database; no cut-off is given here.

Data set [1] has as its system SARS-CoV-2. The data set is described as follows: Antiviral activity against SARS-CoV-2 isolate USA-WA1/2020 infected in Calu-3 cells at 10 uM preincubated for 24 hrs followed by viral infection and measured after 48 hrs by Hoechst 33342 staining based microscopic method. The class given is functional, organism-based. To be noted: Severe acute respiratory syndrome coronavirus 2, time 72.0 hrs.

In data set [2] the test system is SARS-CoV-2. The data set is described as follows: Antiviral activity against SARS-CoV-2 isolate USA-WA1/2020 infected in Calu-3 cells at 1 uM preincubated for 24 hrs followed by viral infection and measured after 48 hrs by Hoechst 33342 staining based microscopic method. The note with it: Severe acute respiratory syndrome coronavirus 2, time 72.0 hrs. The class given is functional, organism-based.

In data set [3] the test system is SARS-CoV-2. The data set is described as follows: Antiviral activity against SARS-CoV-2 isolate USA-WA1/2020 infected in Calu-3 cells preincubated for 24 hrs followed by viral infection and measured after 48 hrs by Hoechst 33342 staining based microscopic method. In kind it is functional, organism-based. To be noted: Severe acute respiratory syndrome coronavirus 2, USA-WA1/2020, Calu-3.

Another data set relates to Calu-3. Briefly: (§1) Cytotoxicity against human Calu-3 cells assessed as reduction in cell viability. The class given is toxicity, cell-based. To be noted: calu-3.
For data set [4], the system named is SARS-CoV-2. The data set is described as follows: Antiviral activity against SARS-CoV-2 isolate USA-WA1/2020 infected in Calu-3 cells assessed at 0.5 uM preincubated for 24 hrs followed by viral infection and measured after 48 hrs by Hoechst 33342 staining based microscopic method relative to control. The class given is functional, organism-based. To be noted: Severe acute respiratory syndrome coronavirus 2, time 72.0 hrs.

In data set [5] the test system is SARS-CoV-2. The data set is described as follows: Antiviral activity against SARS-CoV-2 isolate USA-WA1/2020 infected in Calu-3 cells at 2.8 uM preincubated for 24 hrs followed by viral infection and measured after 48 hrs by Hoechst 33342 staining based microscopic method. In kind it is functional, organism-based. To be noted: Severe acute respiratory syndrome coronavirus 2, time 72.0 hrs.

Data set [6] is described as follows: as §1. In kind it is toxicity, cell-based. To be noted: Calu-3 cells.
The subject of data set [7] is SARS-CoV-2. Briefly: Antiviral activity against SARS-CoV-2 isolate USA-WA1/2020 infected in human Primary bronchial epithelial cells assessed as reduction in viral RNA replication at 2.8 uM preincubated for 1 hr followed by viral infection and measured after 48 hrs by qRT-PCR method relative to control. The class given is functional, Severe acute respiratory syndrome coronavirus 2, Primary bronchial epithelial cell. More on the design: scale not given: the % may be the effect or the level left. To be noted: time 49 hrs. A general note: Quantitative PCR measures a nucleic acid by following its amplification.

In the case of `CC1=C2Cc3cc(ccc3O)C(=O)O[C@H](C(C)(C)Br)CC[C@](C)(O)[C@H](Br)CC[C@]2(C)[C@@H](Br)CC1`, the outcome in the data set with SARS-CoV-2 [1] and in the data set on SARS-CoV-2 [2] was Active. Further, in the data set with SARS-CoV-2 [3], the EC50 amounted to 6.9 µM. Further, the CC50 in the data set on Calu-3 is above 10 µM.
On to `CC(=O)C[C@]1(O)c2ccccc2-[n+]2ccc3c([nH]c4ccccc43)c21.O=C([O-])C(F)(F)F`, for which the result with SARS-CoV-2 [4] and in the data set on SARS-CoV-2 [5] was Active. The compound also returned an EC50 in the data set on SARS-CoV-2 [3] of 1.1 µM. Moreover, the CC50 in data set [6] was 5 µM. For the same compound, in the data set on SARS-CoV-2 [7], the Activity is above 90%.
`CC(C)=CCC[C@@H](C)[C@H]1CC[C@@]2(C(=O)O)C3=C(CC[C@]12C)[C@@]1(C)CC[C@H](O[C@@H]2OC[C@H](O)[C@H](O[C@@H]4OC[C@H](O)[C@H](O[C@@H]5O[C@H](CO)[C@H](O)[C@H](O)[C@H]5O)[C@H]4O)[C@H]2O[C@@H]2O[C@H](CO)[C@H](O)[C@H](O)[C@H]2O)C(C)(C)C1CC3` (stereo partly specified): the result with SARS-CoV-2 [2] was Active.
With `CCC(CC)COC(=O)[C@H](C)N[P@](=O)(OC[C@H]1O[C@@](C#N)(c2ccc3c(N)ncnn23)[C@H](O)[C@@H]1O)Oc1ccccc1` [REMDESIVIR], the EC50 in the data set on SARS-CoV-2 [3] turned out to be 0.3 µM. Further, the CC50 in the data set with Calu-3 was above 5 µM.
Take `C[C@H]1CC[C@H]2C(C)(C)CCC[C@]23Oc2ccc(O)cc2C[C@]13C` [AUREOL]: the result in the data set with SARS-CoV-2 [1] and in the data set with SARS-CoV-2 [2] was Active. Moreover, in the data set with SARS-CoV-2 [3], it took 4 µM to reach a half-maximal effect (EC50). In addition, the half-maximal cytotoxic concentration (CC50) in the data set on Calu-3 was above 10 µM.

By EC50 is commonly meant the concentration needed to bring the measured effect to its halfway point. In general, CC50 refers to the concentration that lowers cell viability or growth by half.
